From patent US20260184712A1, “Heterocyclic Compounds as ENT Inhibitors and Compounds for Use in the Treatment of Cancers” (iTeos Belgium SA, priority 2022, published 2026)
pIC50: −log10 of the molar value.

target: T1, human ENT1 (Homo sapiens, UniProt Q99808); test: ENT1 binding assay (competition with Sahenta-DY647 on JAR cells); conditions: competition with SAHENTA-DY647 binding; IC50 categorized; read-out: Binding Assay IC50
T1 construct: JAR cells expressing ENT1 were purchased from ATCC; host or cells: JAR cells
T1 sequence (Q99808 1-456): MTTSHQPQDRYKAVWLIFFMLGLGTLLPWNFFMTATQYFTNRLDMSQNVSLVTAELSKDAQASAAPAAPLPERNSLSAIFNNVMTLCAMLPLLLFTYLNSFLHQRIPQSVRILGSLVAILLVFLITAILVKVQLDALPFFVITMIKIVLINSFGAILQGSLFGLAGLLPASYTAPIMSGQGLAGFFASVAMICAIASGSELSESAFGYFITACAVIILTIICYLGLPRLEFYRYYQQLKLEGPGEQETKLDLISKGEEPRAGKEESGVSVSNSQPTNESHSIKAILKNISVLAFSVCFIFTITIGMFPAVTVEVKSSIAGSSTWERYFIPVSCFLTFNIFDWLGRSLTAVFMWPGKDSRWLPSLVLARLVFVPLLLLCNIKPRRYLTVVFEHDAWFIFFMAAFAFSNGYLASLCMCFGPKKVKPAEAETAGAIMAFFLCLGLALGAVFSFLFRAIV
How it was run: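 Fluorescent-tracer displacement: compound incubated with JAR cells 30 min, 4 °C, before Sahenta-DY647 (100 nM) for another 30 min, 4 °C, in Hepes-buffered HBSS with 0.1% BSA. Bound tracer read at 670 nm after washes; IC50 from four-parameter fit, reported as mean of pIC50 values.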

| pIC50 | Compound |
| --- | --- |
| > 9.00 | CC(=O)N1CCC(Nc2nc3c(OCc4ccc(C#N)cc4)ncnc3n2[C@@H]2O[C@H](C)[C@@H](O)[C@H]2O)CC1 [Compound 80] |
| 7.70 to 9.00 | C[C@H]1O[C@@H](n2c(N[C@H]3CCOC3)nc3c(OCc4ccc(C#N)cc4)ncnc32)[C@H](O)[C@@H]1O [Compound 78] |
| 7.70 to 9.00 | C[C@H]1O[C@@H](n2c(NCC3CCC(F)(F)C3)nc3c(OCc4ccc(OC(F)F)nc4)ncnc32)[C@H](O)[C@@H]1O (stereo partly shown) [Compound 115] |
| 7.70 to 9.00 | C[C@H]1O[C@@H](n2c(NC3CCC(O)C3)nc3c(OCc4ccc(C(F)(F)F)cc4)ncnc32)[C@H](O)[C@@H]1O (stereo partly shown) [Compound 100] |
| 7.70 to 9.00 | COCCCNc1nc2c(OCc3ccc(OC(F)F)cc3)ncnc2n1[C@@H]1O[C@H](C)[C@@H](O)[C@H]1O [Compound 46] |
| 7.70 to 9.00 | C[C@H]1O[C@@H](n2c(NCc3cnn(C)c3)nc3c(OCc4ccc(OC(F)F)cc4)ncnc32)[C@H](O)[C@@H]1O [Compound 66] |
| 7.70 to 9.00 | C[C@H]1O[C@@H](n2c(Nc3cnn(C)c3)nc3c(OCc4ccc(OC(F)F)cc4)ncnc32)[C@H](O)[C@@H]1O [Compound 64] |
| 7.70 to 9.00 | Cc1nc(CNc2nc3c(OCc4ccc(C#N)cc4)ncnc3n2[C@@H]2O[C@H](C)[C@@H](O)[C@H]2O)no1 [Compound 68] |
| > 9.00 | Cc1cc(COc2ncnc3c2nc(NC2CCOCC2)n3[C@@H]2O[C@H](C)[C@@H](O)[C@H]2O)ccc1[N+](=O)[O-] [Compound 103] |
| 7.70 to 9.00 | C[C@H]1O[C@@H](n2c(NC3CCCC3)nc3c(OCc4ccc(OC(F)(F)F)nc4)ncnc32)[C@H](O)[C@@H]1O [Compound 87] |
| 7.70 to 9.00 | C[C@H]1O[C@@H](n2c(NC3CCOCC3)nc3c(OCc4ccc(C#N)nc4)ncnc32)[C@H](O)[C@@H]1O [Compound 76] |

test system: stimulated primary human T cells; test: T cell proliferation assay, Condition B (X-VIVO15, 2% HSA and 0.1% AAG); format: cell-based; conditions: Homo sapiens, T-cell, 96 h; Condition B: X-VIVO15 medium containing HSA and α1-Acid Glycoprotein; anti-CD3/anti-CD28 beads, ATP, 4 days; CFSE-lo T cells
Method: The goal of this study was to determine the potency of ENT1 inhibitors by measuring the rescued proliferation of stimulated primary human T cells incubated in the presence of 100 uM Adenosine triphosphate (ATP), in baseline conditions (condition A) or in the presence of various proteins known to bind small molecules (condition B).
Condition B: X-VIVO15, 2% Human Serum Albumin (HSA) and 0.1% α-1-Acid Glycoprotein (AAG)
Venous blood from healthy volunteers, all of whom signed an informed consent approved by the Ethics Committee (FOR—UIC—BV-050-01-01 ICF_HBS_HD Version 5.0), was obtained by ImmuneHealth (Centre Hospitalier Universitaire Tivoli, La Louviere, Belgium). Mononuclear cells were collected by density gradient centrifugation, using SepMate-50 tubes (StemCell Technologies, Grenoble, France) and Lymphoprep (Stemcell Technologies) according to the manufacturer's instructions. CD3+ T cells were isolated by immunomagnetic negative selection, using the EasySep Human T Cell Isolation Kit (StemCell Technologies) as per the manufacturer's instructions. CD3+ T cells were stored in heat inactivated FBS (hiFBS; Gibco, ThermoFisher Scientific, Merelbeke, Belgium) and 10% DMSO in liquid nitrogen.
Purified human CD3+ T cells were thawed and washed once with RPMI1640 medium, UltraGlutamine (Lonza, Verviers, Belgium) containing 10% hiFBS. Cells were resuspended in PBS containing 10% hiFBS at 1×10^7 cells/ml. One volume of cells was combined with a matching volume of 2 μM CFSE solution in PBS, mixed well by pipetting, and incubated at room temperature for 5 minutes under rotation and protected from light. Excess CFSE was quenched by addition of PBS containing 10% hiFBS, and the cells were centrifuged (300×rcf, 7 minutes) and resuspended in X-VIVO15. Cells were again centrifuged and resuspended in X-VIVO15 for counting.
Cells were resuspended at 1.6×10^6 cells/mL in X-VIVO15 medium (Condition A) or X-VIVO15 medium containing 4% (v/v) HSA (Sigma-Aldrich, Diegem, Belgium) and 0.2% (v/v) ai-Acid Glycoprotein (Sigma-Aldrich, Diegem, Belgium) (Condition B).
[…] of cell suspension (2×10^4 cells) was added to wells of sterile flat-bottom 384-well plates. Cells were activated by adding […] of anti-CD3 anti-CD28 coated microbeads (Dynabeads human T-activator CD3/CD28; Life Technologies, Paisley, UK) suspended in X-VIVO15 medium or X-VIVO15 medium containing 4% (v/v) HSA and 0.2% (v/v) ai-Acid Glycoprotein at a ratio of one microbead per two cells. Serial dilutions of the ENT1 inhibitors were conducted in X-VIVO15 medium and […] of the diluent was added to the wells. Cells were mixed by pipetting up and down and pre-incubated for 30 minutes in a 37° C. humidified tissue culture incubator with 5% CO2. After pre-incubation, cells were cultured in the presence or absence of ATP (Sigma-Aldrich) at a final concentration of […]. The final well volume was 50 μl in all cases. Experiments were performed in biological duplicates. Cells were mixed by pipetting up and down and incubated for 4 days in a 37° C. humidified tissue culture incubator with 5% CO2.
Samples were run on a BD LSR Fortessa FACS machine (BD FACSDiva Software v9.0.1). Data were analyzed using FlowJo (BD, v10.7.1). T cell proliferation was determined by measuring the frequency of ‘CFSE^lo’ (i.e. CFSE-diluted).
T cell proliferation data were analyzed using FlowJo software (Version 10.6.2). Dead cells and cellular debris were excluded on the basis of forward and side scatter profile and singlet cells were selected for further analysis.
T cell proliferation was determined based on the percent CFSE^lo total T cells for each condition. The data were plotted on the y-axis against log molar (M) concentration of ENT1 inhibitors on the x-axis in GraphPad Prism (version 9.0.0). IC50 and IC90 values were generated with the ‘log(agonist) vs. response—Find ECanything(F))’ function with F constrained to 50 or 90, respectively. pICF values were generated by taking the −logECF values.

| Compound | pIC50 |
| --- | --- |
| CC(=O)N1CCC(Nc2nc3c(OCc4ccc(C#N)cc4)ncnc3n2[C@@H]2O[C@H](C)[C@@H](O)[C@H]2O)CC1 [Compound 80] | 7.70 to 9.00 |
| C[C@H]1O[C@@H](n2c(N[C@H]3CCOC3)nc3c(OCc4ccc(C#N)cc4)ncnc32)[C@H](O)[C@@H]1O [Compound 78] | 6.30 to 7.70 |
| C[C@H]1O[C@@H](n2c(NCC3CCC(F)(F)C3)nc3c(OCc4ccc(OC(F)F)nc4)ncnc32)[C@H](O)[C@@H]1O (stereo partly shown) [Compound 115] | < 6.30 |
| C[C@H]1O[C@@H](n2c(NC3CCC(O)C3)nc3c(OCc4ccc(C(F)(F)F)cc4)ncnc32)[C@H](O)[C@@H]1O (stereo partly shown) [Compound 100] | 6.30 to 7.70 |
| COCCCNc1nc2c(OCc3ccc(OC(F)F)cc3)ncnc2n1[C@@H]1O[C@H](C)[C@@H](O)[C@H]1O [Compound 46] | 6.30 to 7.70 |
| C[C@H]1O[C@@H](n2c(NCc3cnn(C)c3)nc3c(OCc4ccc(OC(F)F)cc4)ncnc32)[C@H](O)[C@@H]1O [Compound 66] | 6.30 to 7.70 |
| C[C@H]1O[C@@H](n2c(Nc3cnn(C)c3)nc3c(OCc4ccc(OC(F)F)cc4)ncnc32)[C@H](O)[C@@H]1O [Compound 64] | 6.30 to 7.70 |
| Cc1nc(CNc2nc3c(OCc4ccc(C#N)cc4)ncnc3n2[C@@H]2O[C@H](C)[C@@H](O)[C@H]2O)no1 [Compound 68] | 6.30 to 7.70 |
| Cc1cc(COc2ncnc3c2nc(NC2CCOCC2)n3[C@@H]2O[C@H](C)[C@@H](O)[C@H]2O)ccc1[N+](=O)[O-] [Compound 103] | 6.30 to 7.70 |
| C[C@H]1O[C@@H](n2c(NC3CCCC3)nc3c(OCc4ccc(OC(F)(F)F)nc4)ncnc32)[C@H](O)[C@@H]1O [Compound 87] | 6.30 to 7.70 |
| C[C@H]1O[C@@H](n2c(NC3CCOCC3)nc3c(OCc4ccc(C#N)nc4)ncnc32)[C@H](O)[C@@H]1O [Compound 76] | 6.30 to 7.70 |
